Source: ChEMBL document CHEMBL4800728, “Data for DCP probe JNJ-54119936” (2021)

What was measured:
[1] = biological target: Alpha-2B adrenergic receptor (Homo sapiens, UniProt P18089); assay: GPCRScan assay: inhibition of Alpha2B; set-up: radioligand conc. used [nm] 1.5 – 2.0, parental cells HEKT
[2] = biological target: Sigma non-opioid intracellular receptor 1 (Homo sapiens, UniProt Q99720); assay: GPCRScan assay: inhibition of Sigma 1; set-up: radioligand conc. used [nm] 4.0 – 5.0, parental cells HEKT
[3] = biological target: Nuclear receptor ROR-beta (Homo sapiens) (UniProt Q92753); assay: ThermoFluor Binding Assay (RORB)
[4] = biological target: Calcium/calmodulin-dependent protein kinase type II subunit alpha (Homo sapiens) (UniProt Q9UQM7); assay: CaMKIIalpha Invitrogen kinase panel; conditions: Compound concentration 10.0 uM
[5] = biological target: Serine/threonine-protein kinase Chk2 (Homo sapiens) (UniProt O96017); assay: CHK2 Invitrogen kinase panel; conditions: Compound concentration 10.0 uM
[6] = biological target: Dual specificity protein kinase CLK2 (Homo sapiens) (UniProt P49760); assay: CLK2 Invitrogen kinase panel; conditions: Compound concentration 10.0 uM
[7] = biological target: Tyrosine-protein kinase JAK2 (Homo sapiens) (UniProt O60674); assay: JAK2 Invitrogen kinase panel; conditions: Compound concentration 10.0 uM
[8] = biological target: Mitogen-activated protein kinase 13 (Homo sapiens) (UniProt O15264); assay: p38delta Invitrogen kinase panel; conditions: Compound concentration 10.0 uM
[9] = biological target: Serine/threonine-protein kinase pim-2 (Homo sapiens) (UniProt Q9P1W9); assay: Pim2 Invitrogen kinase panel; conditions: Compound concentration 10.0 uM
[10] = biological target: Serine/threonine-protein kinase PLK1 (Homo sapiens) (UniProt P53350); assay: Plk1 Invitrogen kinase panel; conditions: Compound concentration 10.0 uM
[11] = biological target: Serine/threonine-protein kinase PLK3 (Homo sapiens) (UniProt Q9H4B4); assay: Plk3 Invitrogen kinase panel; conditions: Compound concentration 10.0 uM
[12] = biological target: cAMP-dependent protein kinase catalytic subunit alpha (Homo sapiens) (UniProt P17612); assay: PKA Invitrogen kinase panel; conditions: Compound concentration 10.0 uM
[13] = biological target: Protein kinase C alpha type (Homo sapiens) (UniProt P17252); assay: PKCalpha Invitrogen kinase panel; conditions: Compound concentration 10.0 uM
[14] = biological target: Protein kinase C beta type (Homo sapiens) (UniProt P05771); assay: PKCbetaI Invitrogen kinase panel; conditions: Compound concentration 10.0 uM
[15] = biological target: Nuclear receptor subfamily 1 group I member 3 (Homo sapiens, UniProt Q14994); assay: CAR In-house nuclear receptor screen
[16] = biological target: Adenosine receptor A2a (Homo sapiens) (UniProt P29274); assay: A2a (h) CEREP screen
[17] = biological target: Type-1 angiotensin II receptor (Homo sapiens) (UniProt P30556); assay: AT1 (h) CEREP screen; conditions: Compound concentration 10.0 uM
[18] = biological target: D(2) dopamine receptor (Homo sapiens) (UniProt P14416); assay: D2S (h) CEREP screen; conditions: Compound concentration 1.0 uM
[19] = biological target: Serotonin 3 (5-HT3) receptor (Homo sapiens) (UniProt P46098+A5X5Y0+O95264+Q70Z44+Q8WXA8); assay: 5-HT3 (h) CEREP screen; assay type: protein-complex assay; conditions: Compound concentration 10.0 uM
[20] = biological target: Sodium-dependent serotonin transporter (Homo sapiens) (UniProt P31645); assay: 5-HT transporter (h) CEREP screen; conditions: Compound concentration 10.0 uM
[21] = biological target: T1, Bile acid receptor (Homo sapiens) (UniProt Q96RI1); assay: FXR Indigo Bioscience nuclear receptor screen
T1 sequence (whole entry): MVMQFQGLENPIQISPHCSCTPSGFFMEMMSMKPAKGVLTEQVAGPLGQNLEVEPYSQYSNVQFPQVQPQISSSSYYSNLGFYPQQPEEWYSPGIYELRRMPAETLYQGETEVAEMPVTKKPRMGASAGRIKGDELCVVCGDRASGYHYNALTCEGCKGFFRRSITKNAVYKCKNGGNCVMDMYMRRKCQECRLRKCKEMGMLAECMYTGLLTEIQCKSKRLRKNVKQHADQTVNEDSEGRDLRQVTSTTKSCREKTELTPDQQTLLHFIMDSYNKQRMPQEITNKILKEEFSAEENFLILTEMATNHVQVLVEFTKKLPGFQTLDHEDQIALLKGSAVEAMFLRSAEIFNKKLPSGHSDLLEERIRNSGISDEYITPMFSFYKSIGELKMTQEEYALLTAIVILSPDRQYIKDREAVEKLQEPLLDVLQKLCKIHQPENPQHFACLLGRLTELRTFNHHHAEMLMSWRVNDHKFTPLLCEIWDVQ

[22] = biological target: T2, PXR (nuclear receptor subfamily 1 group I member 2) (Homo sapiens, UniProt O75469); assay: PXR Indigo Bioscience nuclear receptor screen
T2 sequence (O75469 whole entry): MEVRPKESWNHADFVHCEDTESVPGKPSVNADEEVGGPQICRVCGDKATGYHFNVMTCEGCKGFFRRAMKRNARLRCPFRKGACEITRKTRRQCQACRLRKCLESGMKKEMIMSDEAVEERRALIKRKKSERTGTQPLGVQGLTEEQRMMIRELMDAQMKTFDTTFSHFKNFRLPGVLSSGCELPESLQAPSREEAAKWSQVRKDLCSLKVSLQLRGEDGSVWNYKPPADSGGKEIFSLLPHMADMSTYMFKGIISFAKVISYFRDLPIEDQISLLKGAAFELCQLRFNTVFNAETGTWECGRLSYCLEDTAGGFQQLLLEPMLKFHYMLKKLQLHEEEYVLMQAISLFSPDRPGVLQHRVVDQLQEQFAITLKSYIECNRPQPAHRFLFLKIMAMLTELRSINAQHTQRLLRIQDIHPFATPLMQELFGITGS

[23] = biological target: T3, Peroxisome proliferator-activated receptor delta (Homo sapiens) (UniProt Q03181); assay: PPARdelta Indigo Bioscience nuclear receptor screen
T3 sequence (whole entry): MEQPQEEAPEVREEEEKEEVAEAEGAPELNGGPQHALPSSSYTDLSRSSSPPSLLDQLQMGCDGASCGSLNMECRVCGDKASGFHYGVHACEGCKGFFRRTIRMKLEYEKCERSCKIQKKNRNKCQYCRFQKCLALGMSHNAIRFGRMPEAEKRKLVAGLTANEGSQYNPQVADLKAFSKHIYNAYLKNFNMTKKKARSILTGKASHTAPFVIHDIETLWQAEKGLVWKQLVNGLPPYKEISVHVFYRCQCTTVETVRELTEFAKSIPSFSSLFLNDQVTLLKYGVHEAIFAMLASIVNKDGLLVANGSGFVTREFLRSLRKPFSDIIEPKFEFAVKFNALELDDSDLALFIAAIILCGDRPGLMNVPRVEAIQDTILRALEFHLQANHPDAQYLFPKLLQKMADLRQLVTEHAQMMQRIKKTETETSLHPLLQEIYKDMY

[24] = biological target: 5-hydroxytryptamine receptor 3A (Homo sapiens) (UniProt P46098); conditions: Compound concentration 10.0 uM
[25] = biological target: 5-hydroxytryptamine receptor 5A (Homo sapiens) (UniProt P47898); conditions: Compound concentration 10.0 uM
[26] = biological target: D(2) dopamine receptor (Homo sapiens) (UniProt P14416); conditions: Compound concentration 10.0 uM
[27] = biological target: Mu-type opioid receptor (Homo sapiens) (UniProt P35372); conditions: Compound concentration 10.0 uM

Chain of Adenosine receptor A2a (Homo sapiens) (P29274 whole entry): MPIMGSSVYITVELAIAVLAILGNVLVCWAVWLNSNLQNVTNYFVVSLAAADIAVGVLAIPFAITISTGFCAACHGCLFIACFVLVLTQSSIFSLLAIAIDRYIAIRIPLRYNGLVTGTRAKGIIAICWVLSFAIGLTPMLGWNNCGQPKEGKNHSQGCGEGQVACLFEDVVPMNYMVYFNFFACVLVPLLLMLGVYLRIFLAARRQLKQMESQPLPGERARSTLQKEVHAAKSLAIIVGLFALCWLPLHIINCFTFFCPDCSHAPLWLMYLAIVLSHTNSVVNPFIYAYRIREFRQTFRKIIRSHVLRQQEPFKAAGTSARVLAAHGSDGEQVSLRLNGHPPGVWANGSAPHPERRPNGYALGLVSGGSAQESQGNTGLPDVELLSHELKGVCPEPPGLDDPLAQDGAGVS
Chain of Sigma non-opioid intracellular receptor 1 (Q99720 whole entry): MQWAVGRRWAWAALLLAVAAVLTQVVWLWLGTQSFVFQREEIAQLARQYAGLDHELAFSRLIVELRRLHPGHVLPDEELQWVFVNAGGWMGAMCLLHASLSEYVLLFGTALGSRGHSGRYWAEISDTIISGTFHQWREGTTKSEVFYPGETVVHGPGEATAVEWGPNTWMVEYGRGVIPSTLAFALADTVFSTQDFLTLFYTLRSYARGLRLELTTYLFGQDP
Chain of D(2) dopamine receptor (Homo sapiens) (P14416 whole entry): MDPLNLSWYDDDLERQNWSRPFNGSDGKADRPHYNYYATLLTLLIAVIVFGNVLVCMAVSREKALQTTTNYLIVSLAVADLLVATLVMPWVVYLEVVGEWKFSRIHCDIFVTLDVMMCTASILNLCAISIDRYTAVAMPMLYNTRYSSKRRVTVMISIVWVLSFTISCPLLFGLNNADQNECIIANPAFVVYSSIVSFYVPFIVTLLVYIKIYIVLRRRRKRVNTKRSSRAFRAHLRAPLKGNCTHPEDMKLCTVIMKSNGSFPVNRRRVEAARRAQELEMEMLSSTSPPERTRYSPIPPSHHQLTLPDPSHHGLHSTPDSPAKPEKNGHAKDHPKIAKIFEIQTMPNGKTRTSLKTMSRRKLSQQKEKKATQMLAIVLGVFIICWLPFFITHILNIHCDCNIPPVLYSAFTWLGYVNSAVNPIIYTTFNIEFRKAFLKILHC
Chain of Calcium/calmodulin-dependent protein kinase type II subunit alpha (Homo sapiens) (Q9UQM7 whole entry): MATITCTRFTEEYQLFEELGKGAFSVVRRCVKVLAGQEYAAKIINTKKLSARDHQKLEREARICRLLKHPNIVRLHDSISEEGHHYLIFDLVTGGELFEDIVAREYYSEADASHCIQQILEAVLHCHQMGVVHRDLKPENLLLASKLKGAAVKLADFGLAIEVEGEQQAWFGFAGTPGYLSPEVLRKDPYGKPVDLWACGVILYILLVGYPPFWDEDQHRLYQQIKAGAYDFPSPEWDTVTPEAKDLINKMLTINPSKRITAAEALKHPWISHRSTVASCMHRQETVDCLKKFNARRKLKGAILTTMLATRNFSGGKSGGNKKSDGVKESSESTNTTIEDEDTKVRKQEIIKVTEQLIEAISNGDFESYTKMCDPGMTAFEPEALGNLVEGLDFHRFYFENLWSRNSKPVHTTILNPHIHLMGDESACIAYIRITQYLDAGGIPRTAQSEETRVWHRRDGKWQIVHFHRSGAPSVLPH
Chain of Type-1 angiotensin II receptor (Homo sapiens) (P30556 whole entry): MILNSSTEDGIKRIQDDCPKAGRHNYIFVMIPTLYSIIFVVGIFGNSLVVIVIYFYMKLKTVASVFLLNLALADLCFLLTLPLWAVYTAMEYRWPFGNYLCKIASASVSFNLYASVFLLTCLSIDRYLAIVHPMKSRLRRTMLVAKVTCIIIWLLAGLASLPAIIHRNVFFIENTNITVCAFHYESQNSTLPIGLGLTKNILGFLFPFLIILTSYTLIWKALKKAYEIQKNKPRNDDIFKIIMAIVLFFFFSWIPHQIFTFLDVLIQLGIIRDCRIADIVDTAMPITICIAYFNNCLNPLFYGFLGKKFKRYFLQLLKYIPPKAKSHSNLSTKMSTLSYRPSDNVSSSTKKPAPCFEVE
Chain of Sodium-dependent serotonin transporter (Homo sapiens) (P31645 whole entry, looked up): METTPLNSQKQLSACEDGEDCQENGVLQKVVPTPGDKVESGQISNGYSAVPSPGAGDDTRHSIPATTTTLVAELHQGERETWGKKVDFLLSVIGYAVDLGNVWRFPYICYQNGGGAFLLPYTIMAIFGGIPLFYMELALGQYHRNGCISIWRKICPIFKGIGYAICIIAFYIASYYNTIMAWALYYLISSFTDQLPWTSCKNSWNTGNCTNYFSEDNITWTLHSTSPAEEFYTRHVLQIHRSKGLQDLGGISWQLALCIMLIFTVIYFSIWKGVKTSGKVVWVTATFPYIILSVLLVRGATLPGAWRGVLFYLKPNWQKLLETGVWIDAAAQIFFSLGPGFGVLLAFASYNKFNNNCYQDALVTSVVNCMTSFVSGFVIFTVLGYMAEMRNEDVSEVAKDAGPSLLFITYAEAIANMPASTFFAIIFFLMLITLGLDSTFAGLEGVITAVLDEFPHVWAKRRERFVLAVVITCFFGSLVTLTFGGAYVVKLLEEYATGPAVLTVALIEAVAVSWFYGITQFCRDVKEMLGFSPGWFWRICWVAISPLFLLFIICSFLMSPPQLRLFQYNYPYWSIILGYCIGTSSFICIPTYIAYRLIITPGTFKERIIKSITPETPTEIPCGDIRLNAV
Chain of Tyrosine-protein kinase JAK2 (Homo sapiens) (O60674 whole entry): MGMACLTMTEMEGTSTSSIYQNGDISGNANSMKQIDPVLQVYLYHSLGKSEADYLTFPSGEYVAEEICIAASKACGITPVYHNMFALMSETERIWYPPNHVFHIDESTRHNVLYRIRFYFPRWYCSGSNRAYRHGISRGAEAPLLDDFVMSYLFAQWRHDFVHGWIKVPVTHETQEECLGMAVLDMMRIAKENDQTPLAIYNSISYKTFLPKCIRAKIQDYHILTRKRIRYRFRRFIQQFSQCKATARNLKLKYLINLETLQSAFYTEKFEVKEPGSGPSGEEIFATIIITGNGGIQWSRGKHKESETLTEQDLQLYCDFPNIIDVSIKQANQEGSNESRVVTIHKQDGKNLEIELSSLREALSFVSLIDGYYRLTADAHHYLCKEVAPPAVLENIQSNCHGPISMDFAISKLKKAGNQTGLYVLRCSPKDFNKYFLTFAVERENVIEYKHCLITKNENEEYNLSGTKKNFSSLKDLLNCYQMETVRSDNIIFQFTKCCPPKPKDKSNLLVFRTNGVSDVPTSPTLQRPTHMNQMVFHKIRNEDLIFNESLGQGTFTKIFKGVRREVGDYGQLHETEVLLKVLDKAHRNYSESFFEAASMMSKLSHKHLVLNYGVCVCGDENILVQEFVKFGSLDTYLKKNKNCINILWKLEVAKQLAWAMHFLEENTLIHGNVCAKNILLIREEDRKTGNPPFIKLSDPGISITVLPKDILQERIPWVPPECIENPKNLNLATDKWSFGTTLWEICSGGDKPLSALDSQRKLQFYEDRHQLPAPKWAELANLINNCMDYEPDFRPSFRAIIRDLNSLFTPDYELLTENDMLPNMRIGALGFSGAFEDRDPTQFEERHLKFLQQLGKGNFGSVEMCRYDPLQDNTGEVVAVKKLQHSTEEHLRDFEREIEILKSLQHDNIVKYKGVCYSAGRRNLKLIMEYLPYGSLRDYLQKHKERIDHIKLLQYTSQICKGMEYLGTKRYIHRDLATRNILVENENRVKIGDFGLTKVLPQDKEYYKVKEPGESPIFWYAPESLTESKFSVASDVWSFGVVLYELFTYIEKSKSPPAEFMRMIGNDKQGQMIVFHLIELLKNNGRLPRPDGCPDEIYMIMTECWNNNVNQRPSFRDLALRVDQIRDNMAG
Chain of Nuclear receptor subfamily 1 group I member 3 (Q14994 whole entry): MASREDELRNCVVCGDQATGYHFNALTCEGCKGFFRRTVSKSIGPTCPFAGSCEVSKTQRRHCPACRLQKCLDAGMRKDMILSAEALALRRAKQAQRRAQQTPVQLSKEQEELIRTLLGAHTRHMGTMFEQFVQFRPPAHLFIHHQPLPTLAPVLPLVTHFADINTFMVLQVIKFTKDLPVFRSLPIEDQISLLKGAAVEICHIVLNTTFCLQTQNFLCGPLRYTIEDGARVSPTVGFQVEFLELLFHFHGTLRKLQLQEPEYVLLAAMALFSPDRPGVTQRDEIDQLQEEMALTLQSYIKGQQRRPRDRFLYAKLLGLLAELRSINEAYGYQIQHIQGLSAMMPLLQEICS
Chain of Mitogen-activated protein kinase 13 (Homo sapiens) (O15264 whole entry): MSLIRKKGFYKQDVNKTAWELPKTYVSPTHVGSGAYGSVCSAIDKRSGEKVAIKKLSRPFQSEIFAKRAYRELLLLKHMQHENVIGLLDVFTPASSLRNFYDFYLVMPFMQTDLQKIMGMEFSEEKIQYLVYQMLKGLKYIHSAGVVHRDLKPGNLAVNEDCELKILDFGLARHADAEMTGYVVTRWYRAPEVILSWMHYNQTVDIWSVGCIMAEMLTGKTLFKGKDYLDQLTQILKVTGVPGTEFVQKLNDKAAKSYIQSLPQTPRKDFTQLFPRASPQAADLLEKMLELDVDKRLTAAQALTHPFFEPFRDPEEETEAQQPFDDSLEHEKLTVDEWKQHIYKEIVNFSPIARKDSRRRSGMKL
Chain of Serine/threonine-protein kinase pim-2 (Homo sapiens) (Q9P1W9 whole entry, looked up): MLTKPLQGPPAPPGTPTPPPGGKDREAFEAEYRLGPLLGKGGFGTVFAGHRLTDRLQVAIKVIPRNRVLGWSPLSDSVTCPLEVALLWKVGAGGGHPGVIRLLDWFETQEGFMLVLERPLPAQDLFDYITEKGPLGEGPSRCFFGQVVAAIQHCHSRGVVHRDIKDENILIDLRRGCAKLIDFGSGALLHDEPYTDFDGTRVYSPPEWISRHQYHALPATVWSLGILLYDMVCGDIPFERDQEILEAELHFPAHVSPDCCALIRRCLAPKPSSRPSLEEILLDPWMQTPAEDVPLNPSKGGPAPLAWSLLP

- Ki [1]: 9.22 µM
- Ki ([2]; read-out: Ki): 3.13 µM
- Ki ([2]; read-out: pKi (converted)): 3.02 µM
- qKD [3]: > 75 µM
- inhibition [4]: 14%
- inhibition [5]: 6%
- inhibition [6]: 4%
- inhibition [7]: 6%
- inhibition [8]: 14%
- inhibition [9]: 1%
- inhibition [10]: -1%
- inhibition [11]: 3%
- inhibition [12]: 1%
- inhibition [13]: 4%
- inhibition [14]: 1%
- IC50 [15]: 8.4 µM
- inhibition ([16]; Compound concentration 1.0 uM): 18%
- inhibition ([16]; Compound concentration 10.0 uM): 21%
- inhibition [17]: 11%
- inhibition [18]: 10%
- inhibition [19]: 18%
- inhibition [20]: 13%
- inhibition ([21]; Compound concentration 0.3 uM): -8.5%
- inhibition ([21]; Compound concentration 1.0 uM): 5.23%
- inhibition at 0.3 µM ([22]; compound concentration 0.3 uM): -7.63% (not active)
- inhibition at 1 µM ([22]; compound concentration 1 uM): -26.4% (not active)
- inhibition at 3 µM ([22]; compound concentration 3 uM): 1.01% (not active)
- inhibition ([23]; Compound concentration 0.3 uM): -3.53%
- inhibition ([23]; Compound concentration 1.0 uM): -5.27%
- inhibition ([23]; Compound concentration 3.0 uM): 0.29%
- inhibition [24]: 9.28%
- inhibition [25]: -0.46%
- inhibition [26]: 12.5%
- inhibition [27]: 25.6%
Compound: COc1nc2ccc([C@@](O)(c3ccccc3)C3CCN(C(C)=O)CC3)cc2c(Cl)c1Cc1ccc(-n2cccn2)cc1 [JNJ-54119936]
